Target: T1, human GVIA iPLA2 (Homo sapiens, UniProt O60733)
T1 sequence (O60733 1-806): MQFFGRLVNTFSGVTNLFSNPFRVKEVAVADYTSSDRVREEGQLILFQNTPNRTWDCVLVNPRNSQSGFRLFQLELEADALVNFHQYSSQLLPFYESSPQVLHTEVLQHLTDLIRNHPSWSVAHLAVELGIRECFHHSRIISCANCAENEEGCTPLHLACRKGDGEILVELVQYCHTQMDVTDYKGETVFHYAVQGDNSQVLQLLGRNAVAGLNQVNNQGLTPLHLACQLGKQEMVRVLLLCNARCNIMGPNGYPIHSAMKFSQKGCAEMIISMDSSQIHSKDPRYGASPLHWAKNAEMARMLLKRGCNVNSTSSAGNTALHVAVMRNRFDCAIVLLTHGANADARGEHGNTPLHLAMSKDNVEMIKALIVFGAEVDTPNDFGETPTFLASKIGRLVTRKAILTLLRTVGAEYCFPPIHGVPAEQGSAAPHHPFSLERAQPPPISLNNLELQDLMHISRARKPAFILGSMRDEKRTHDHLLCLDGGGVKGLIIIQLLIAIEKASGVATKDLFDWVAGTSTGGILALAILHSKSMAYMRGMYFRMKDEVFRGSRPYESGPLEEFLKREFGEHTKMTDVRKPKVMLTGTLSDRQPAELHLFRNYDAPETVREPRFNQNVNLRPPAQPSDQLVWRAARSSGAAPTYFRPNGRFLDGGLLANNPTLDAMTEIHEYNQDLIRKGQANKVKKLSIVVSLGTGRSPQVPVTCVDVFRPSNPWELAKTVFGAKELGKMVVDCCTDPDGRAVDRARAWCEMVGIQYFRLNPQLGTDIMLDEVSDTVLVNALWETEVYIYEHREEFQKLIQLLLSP
Assay: mixed micelle modified Dole assay, GVIA iPLA2
Type: biochemical
Conditions: for XI(50) GVIA iPLA2: mole fraction of inhibitor in total substrate interface giving 50% inhibition

| SMILES | inhibitory activity on GVIA iPLA2 (in words) | IC50 [µM] | XI(50) GVIA iPLA2 [mole fraction] | times more potent inhibition of GVIA iPLA2 than of GIVA cPLA2 (selectivity GVIA iPLA2 over GIVA cPLA2) |
| --- | --- | --- | --- | --- |
| CCCC[C@H](NC(=O)C(=O)CCCCc1ccc2ccccc2c1)C(=O)NCC(=O)O [13b, (S)-2-(2-(6-(Naphthalen-2-yl)-2-oxohexanamido)hexanamido) acetic acid] | totally inactive | – | – | – |
| CCCC[C@H](NC(=O)C(=O)CCCCc1ccccc1)C(=O)NCC(=O)O [13a, (S)-2-(2-(2-Oxo-6-phenylhexanamido)hexanamido)acetic acid] | totally inactive | – | – | – |
| CCCC[C@H](NC(=O)C(=O)CCCCc1ccc(OC)cc1)C(=O)NCCCC(=O)OC(C)(C)C [compound 12e, (S)-tert-Butyl 4-(2-(6-(4-methoxyphenyl)-2-oxohexanamido)hexanamido)butanoate] | – | 3.8 | 0.007 | around 13 times |
| CCCC[C@@H](COCC(=O)O)NC(=O)C(=O)CCCCc1ccc(OC)cc1 [20d, (S)-2-((2-(6-(4-Methoxyphenyl)-2-oxohexanamido)hexyl)oxy)acetic acid] | totally inactive | – | – | – |
| COc1ccc(CCCCC(=O)C(=O)N[C@@H](CC(C)C)C(=O)NCC(=O)OC(C)(C)C)cc1 [compound 22a, (S)-tert-Butyl 2-(2-(6-(4-methoxyphenyl)-2-oxohexanamido)-4-methylpentanamido)acetate] | – | 13 | 0.024 | – |
| CCCC[C@H](NC(=O)C(=O)CCCCc1ccc(OC)cc1)C(=O)NCC(=O)OCc1ccccc1 [compound 31a, (S)-Benzyl 2-(2-(6-(4-methoxyphenyl)-2-oxohexanamido)hexanamido)acetate] | – | 14 | 0.026 | – |
| CCCC[C@H](NC(=O)C(=O)CCCCc1ccc(OC)cc1)C(=O)NCC(=O)OC(C)(C)C [compound 12c, (S)-tert-Butyl 2-(2-(6-(4-methoxyphenyl)-2-oxohexanamido)hexanamido)acetate] | – | 6.6 | 0.012 | – |
